# Key:
# [1] = Window of opportunity trial: adverse events of intratumoral/peritumoral Copaxone injections; type: in vivo, human
# Procedure: Subjects whose tumors were accessible for intratumoral, percutaneous injection and were planned for surgery as the primary treatment were eligible if no other treatment between initial biopsy and surgery was anticipated. During the treatment period, eligible subjects received Copaxone® at 40 mg intratumorally for up to 3 times a week and at least 48 hours apart until 24 hours before the planned surgery. This dosing regimen was consistent with the label for subcutaneous injections of Copaxone®.
# This study is an open label single arm window of opportunity trial in patients with resectable solid malignancies whose planned primary treatment is surgical resection conducted at the University of Kansas Cancer Center (KUCC). The patients had to be at least 18 years old with previously untreated histologically confirmed malignant tumor that is percutaneously accessible for intratumoral injection. The injectable tumor must be at least 5 mm in diameter using standard measuring tape. Pretreatment archival tumor tissue consisting of formalin-fixed, paraffin-embedded (FFPE) tumor tissue obtained from standard of care diagnostic biopsy must be available in order to be eligible for the trial. Patients whose lesions are in close proximity to vascular structures (i.e., carotid artery or tumors close to other vital organs such as the trachea), with mucosal lesions only, with known hypersensitivity to Copaxone or with a known condition that leads to immunosuppression such as AIDS or concurrent use of immunosuppressive therapy were considered ineligible. Approval for the study was granted through the institutional review board at University of Kansas Cancer Center and all patients provided written informed consent before study entry. This trial was performed according to the Declaration of Helsinki principles. The KUCC Data and Safety Monitoring Committee (DSMC) performed the oversight of the monitoring of participant safety, conduct and scientific progress of research protocols, and the validity and integrity of the data for clinical trials.
# Study treatment: Treatment was administered on an outpatient basis prior to surgery. […] Doses were administered at least 48 hours apart and the last dose given within 96 hours of surgery. This window of 96 hours was chosen because we hypothesized that any immune changes due to Copaxone may remain apparent within 96 hours. No dose adjustments, modifications or delays due to Copaxone® related toxicity were allowed.
# Efforts were made to administer the full dose into the lesion, unless it was deemed not practicable by the treating investigator. Tumors were injected using a 28-gauge or smaller needle. Glatiramer acetate (Copaxone®) was thoroughly distributed within the injected tumor using a “fanning method” (to distribute the injection across several angles throughout the lesion to maximize the spread of glatiramer acetate (Copaxone®) in the tumor). The use of local anesthetic prior to Copaxone injection was allowed.
# Safety Assessments: Adverse events were assessed at baseline, during Copaxone® dose administration and at time of surgery or end of treatment visit. The revised NCI Common Terminology Criteria for Adverse Events (CTCAE) version 5.0 was utilized for AE reporting and toxicity assessment. Complete blood count, chemistry and INR were done at baseline.
# A single-arm, open-label, preoperative window of opportunity trial was conducted to evaluate the feasibility, safety, and local effects of intratumoral/peritumoral injections of Copaxone®. Subjects whose tumors were accessible for intratumoral, percutaneous injection and were planned for surgery as the primary treatment were eligible if no other treatment between initial biopsy and surgery was anticipated. During the treatment period, eligible subjects received Copaxone® at 40 mg intratumorally for up to 3 times a week and at least 48 hours apart until 24 hours before the planned surgery. […]
# [2] = tested on: AT84 tumors; test: AT84 orthotopic head and neck tumor study; type: in vivo, C3H mice; details: intratumoral 300 μg GA, 75 μg CpG or R4 every three days x5; anti-PD-1 250 μg i.p. every three days
# Source text: AT84 cells were derived from a spontaneous sarcomatoid carcinoma in the oral mucosa of a C3H mouse and were graciously donated by Aldo Venuti (Regina Elena National Cancer Institute, Rome, Italy). Cells tested negative for interspecies contamination (Idexx BioResearch) and rodent pathogens (21 pathogen IMPACT I PCR profile), and negative for Mycoplasm contamination prior to animal studies (Lonza, MycoAlert test kit). Idexx CellCheck STR (short tandem repeat) profile: MCA-4-2: 20.3, 21.3; MCA-5-5: 15; MCA-6-4: 18, 19; MCA-6-7: 12; MCA-9-2: 15; MCA-12-1: 16; MCA-15-3: 25.3, 26.3; MCA-18-3: 16; MCA-X-1: 26, 27.
# 4% mannitol was prepared by dissolving D-mannitol (Fisher BioReagents® #M120, Fair Lawn, NJ) in molecular biology grade water (Corning #46-000, Manassas, VA) and sterile filtered through a 0.22 μm PES membrane filter (Millex®-GP #SLGPR33RS, Merck Millipore Ltd., Tullagreen, Carrigtwohill). 1 ml syringe stocks of 20 mg/mL GA (Copaxone®, TEVA Neuroscience, Inc., Overland Park, KS) were donated by The University of Kansas Medical Center. CpG ODN 1826 was purchased from InvivoGen (#tlrl-1826, San Diego, CA) and was resuspended in LAL water to obtain 3.17 mg/mL (500 μM) stocks following manufacture's protocol. All subsequent dilutions were performed using 4% mannitol. R4 polyplexes were prepared as previously described (Pressnall et al). […]
# [3] = mouse, in vivo; cited from earlier work
substance,measurement,setting,value
Glatiramer acetate [GA],injection site reactions (overall),"[1]; intratumoral/peritumoral injection, patients",Injection site reactions were observed in and around tumor tissues
same,grade 2 or higher adverse events,"[1]; nine patients, Copaxone 40 mg intratumoral",no grade 2 or higher adverse events
same,treatment related adverse events reported (number),"[1]; nine patients, Copaxone 40 mg intratumoral, 1-3 injections",3
same,grade of treatment related adverse events,"[1]; nine patients, Copaxone 40 mg intratumoral, CTCAE v5.0",grade 1
same,Injection Site Reaction,"[1]; patient BCCa-Left Nasal Ala, 2 Copaxone injections",Grade 1-Mild
same,Injection Site Reaction,"[1]; patient BCCa-Left Nasal Ala, 2 Copaxone injections, listed as Copaxone",grade 1 injection site reaction described as pressure and itching
same,Injection Site Reaction,"[1]; patient BCCa-Right Flank, 3 Copaxone injections",1st inj. - Pain
same,Injection Site Reaction,"[1]; patient BCCa-Right Post. Neck, 2 Copaxone injections",Grade 1-Mild
same,Injection Site Reaction,"[1]; patient BCCa-Right Post. Neck, 2 Copaxone injections, listed as Copaxone",grade 1 burning with injection of lidocaine
same,Injection Site Reaction,"[1]; patient Melanoma-Left Scalp, 2 Copaxone injections",None
same,Injection Site Reaction,"[1]; patient Melanoma-Mid Back, 2 Copaxone injections",None
same,Injection Site Reaction,"[1]; patient SCCa-Right Cheek, 1 Copaxone injection",None
same,tolerability of intratumoral injections,[1]; patients,well tolerated
same,tumor growth,[2],no effect
same,retention of co-delivered immunostimulants at injection site,[3],retaining other HIT-IT such as CpG and PolyI: C at the intratumoral site of injection

# — patent US20260028404A1 (UNIVERSITY OF KANSAS, priority 2022, published 2026)
